Assay results as given in ChEMBL document CHEMBL1139234, “Optimization of monocarboxylate transporter 1 blockers through analysis and modulation of atropisomer interconversion properties” (J Med Chem, 2007).
≈ marks a conversion by molar mass, not a printed value.

Assay: physchem
Conditions: octanol/water

For `CC(C)Cn1c(=O)n(C)c(=O)c2c(C(=O)N3CC[C@@H](O)C3)c(Cc3ccnc4ccc(F)cc34)sc21`, which logD is on record?
The logD was 2.

Which logD does the source give for `CC(C)Cn1c(=O)n(C)c(=O)c2c(C(=O)N3C[C@H](O)CO3)c(Cc3ccccc3C(F)(F)F)sc21` here?
The logD was 3.2.

For `CNc1nc2ccccc2n1Cc1sc2c(c1C(=O)N1C[C@H](O)CO1)c(=O)n(C)c(=O)n2CC(C)C`, which logD is on record?
The logD was 1.8.

Which logD does the source give for `CC(C)Cn1c(=O)n(C)c(=O)c2c(C(=O)N3CC[C@@H](O)C3)c(Oc3cccc4ccccc34)sc21` here?
The logD was 2.9.

Which logD does the source give for `Cc1n[nH]c(C)c1Cc1sc2c(c1C(=O)N1C[C@H](O)CO1)c(=O)n(C)c(=O)n2CC(C)C` here?
The logD was 1.1.

Which logD does the source give for `CC(C)Cn1c(=O)n(C)c(=O)c2c(C(=O)N3C[C@H](O)CO3)c(Cc3c[nH]c4ncccc34)sc21` here?
The logD was 2.

For `CON(C)C(=O)c1c(Cn2c(C)nc(Cl)c2Cl)sc2c1c(=O)n(C)c(=O)n2CC(C)C`, which logD is on record?
The logD was 2.3.

Which logD does the source give for `CC(C)n1c(=O)n(C)c(=O)c2c(C(=O)N3CCS(=O)(=O)C3)c(Cc3ccccc3C(F)(F)F)sc21` here?
Its logD is 2.6.

Assay: Solubility of the compound
Assay type: physicochemical
Conditions: not given

Which solubility does the source give for `CC(C)Cn1c(=O)n(C)c(=O)c2c(C(=O)N3CC[C@@H](O)C3)c(Cc3ccnc4ccccc34)sc21` here?
Its solubility is 500 µg/mL (≈ 1.02 mM).

With `Cc1n[nH]c(C)c1Cc1sc2c(c1C(=O)N1C[C@H](O)CO1)c(=O)n(C)c(=O)n2CC(C)C` as the compound, how does the solubility read?
The solubility was 2900 µg/mL (≈ 6.28 mM).
